# Source: ChEMBL document CHEMBL1143289, “Potent and selective adenosine A2A receptor antagonists: 1,2,4-Triazolo[1,5-c]pyrimidines” (Bioorg Med Chem Lett, 2009)
# Experiments:
# Homo sapiens = species on record: Homo sapiens; experiment: Selectivity for human adenosine A1 receptor over human adenosine A2A receptor
# Adenosine receptor A2a = Adenosine receptor A2a (Homo sapiens, UniProt P29274); experiment: Displacement of [3H]SCH58261 from human adenosine A2A receptor expressed in HEK293 cells; format: cell-based
# Rattus norvegicus [1] = experiment: Inhibition of haloperidol-induced catalepsy in rat at 3 mg/kg, po after 4 hrs; format: functional
# Rattus norvegicus [2] = experiment: Inhibition of haloperidol-induced catalepsy in rat at 3 mg/kg, po after 1 hr; format: functional
# [3] = AUC in rat plasma at 3 mg/kg, po; format: ADME, organism-based; parameters: dose 3 mg/kg, route oral
# Rattus norvegicus [4] = experiment: Inhibition of haloperidol-induced catalepsy in rat at 1 mg/kg, po after 1 hr; format: functional
# Rattus norvegicus [5] = experiment: Inhibition of haloperidol-induced catalepsy in rat at 1 mg/kg, po after 4 hrs; format: functional
# Rattus norvegicus [6] = experiment: Inhibition of haloperidol-induced catalepsy in rat at 0.1 mg/kg, po after 4 hrs; format: functional
# Rattus norvegicus [7] = experiment: Inhibition of haloperidol-induced catalepsy in rat at 0.3 mg/kg, po after 1 hr; format: functional; details: read-out: INH
# Rattus norvegicus [8] = experiment: Inhibition of haloperidol-induced catalepsy in rat at 0.3 mg/kg, po after 4 hrs; format: functional; details: read-out: INH
# Rattus norvegicus [9] = experiment: Inhibition of haloperidol-induced catalepsy in rat at 0.1 mg/kg, po after 1 hr; format: functional; details: read-out: INH
# Rattus norvegicus [10] = experiment: Inhibition of haloperidol-induced catalepsy in rat at 0.3 mg/kg, po after 1 hr; parameters: scale not given: the % may be the effect or the level left
# Chain of Adenosine receptor A2a (P29274 whole entry): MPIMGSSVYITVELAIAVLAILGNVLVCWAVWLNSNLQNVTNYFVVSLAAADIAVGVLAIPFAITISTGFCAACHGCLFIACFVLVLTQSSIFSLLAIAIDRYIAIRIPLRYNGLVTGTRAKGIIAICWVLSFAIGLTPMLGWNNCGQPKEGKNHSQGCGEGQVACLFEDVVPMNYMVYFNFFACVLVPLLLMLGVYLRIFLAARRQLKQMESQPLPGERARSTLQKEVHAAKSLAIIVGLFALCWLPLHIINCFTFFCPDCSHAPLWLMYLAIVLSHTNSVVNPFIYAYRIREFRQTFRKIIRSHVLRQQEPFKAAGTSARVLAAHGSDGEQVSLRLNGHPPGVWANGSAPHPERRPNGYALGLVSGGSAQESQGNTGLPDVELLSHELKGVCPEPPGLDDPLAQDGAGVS
smiles,measurement,setting,value
COCCN(CCc1ccc(F)cc1)c1cc2nc(-c3ccco3)nn2c(N)n1,Ratio,Homo sapiens,566
same,Ki,Adenosine receptor A2a,1 nM
COc1ccc(CCSc2cc3nc(-c4ccco4)nn3c(N)n2)cc1,Ratio,Homo sapiens,58
same,Ki,Adenosine receptor A2a,1.6 nM
COc1ccc(CCOc2cc3nc(-c4ccco4)nn3c(N)n2)cc1,Ratio,Homo sapiens,58
same,Ki,Adenosine receptor A2a,2.8 nM
COCCN(CCN1CCN(c2ccc(F)cc2F)CC1)c1cc2nc(-c3ccco3)nn2c(N)n1,Ratio,Homo sapiens,1060
same,inhibition in vivo at 3 mg/kg,Rattus norvegicus [1],57%
same,inhibition in vivo at 3 mg/kg,Rattus norvegicus [2],56%
same,Ki,Adenosine receptor A2a,0.5 nM
CN(CCN1CCN(c2ccc(F)cc2F)CC1)c1cc2nc(-c3cccc(C#N)c3)nn2c(N)n1,Ratio,Homo sapiens,620
same,inhibition in vivo at 3 mg/kg,Rattus norvegicus [1],14%
same,inhibition in vivo at 3 mg/kg,Rattus norvegicus [2],35%
same,AUC,[3],1300 ng·h/mL
same,Ki,Adenosine receptor A2a,1.8 nM
Nc1nc(OCCN2CCN(c3ccc(F)cc3F)CC2)cc2nc(-c3ccco3)nn12,Ratio,Homo sapiens,275
same,inhibition in vivo at 3 mg/kg,Rattus norvegicus [1],0%
same,inhibition in vivo at 1 mg/kg,Rattus norvegicus [4],45%
same,inhibition in vivo at 3 mg/kg,Rattus norvegicus [2],25%
same,AUC,[3],187 ng·h/mL
same,Ki,Adenosine receptor A2a,6 nM
Nc1nc(SCCN2CCN(c3ccc(F)cc3F)CC2)cc2nc(-c3ccco3)nn12,Ratio,Homo sapiens,365
same,inhibition in vivo at 3 mg/kg,Rattus norvegicus [1],45%
same,inhibition in vivo at 1 mg/kg,Rattus norvegicus [4],50%
same,inhibition in vivo at 3 mg/kg,Rattus norvegicus [2],50%
same,AUC,[3],229 ng·h/mL
same,inhibition in vivo at 1 mg/kg,Rattus norvegicus [5],5%
same,Ki,Adenosine receptor A2a,1.4 nM
COCCOc1ccc(N2CCN(CCSc3cc4nc(-c5ccco5)nn4c(N)n3)CC2)cc1,Ratio,Homo sapiens,965
same,inhibition in vivo at 3 mg/kg,Rattus norvegicus [1],65%
same,inhibition in vivo at 1 mg/kg,Rattus norvegicus [4],50%
same,inhibition in vivo at 3 mg/kg,Rattus norvegicus [2],65%
same,AUC,[3],910 ng·h/mL
same,inhibition in vivo at 1 mg/kg,Rattus norvegicus [5],15%
same,Ki,Adenosine receptor A2a,1.5 nM
COCCOc1ccc(N2CCN(CCOc3cc4nc(-c5ccco5)nn4c(N)n3)CC2)cc1,Ratio,Homo sapiens,405
same,inhibition in vivo at 1 mg/kg,Rattus norvegicus [4],25%
same,AUC,[3],943 ng·h/mL
same,inhibition in vivo at 1 mg/kg,Rattus norvegicus [5],25%
same,Ki,Adenosine receptor A2a,2.8 nM
COc1ccc(CCCN(C)c2cc3nc(-c4ccco4)nn3c(N)n2)cc1,Ratio,Homo sapiens,76
same,Ki,Adenosine receptor A2a,5.7 nM
CCN(CCc1ccc(F)cc1)c1cc2nc(-c3ccco3)nn2c(N)n1,Ratio,Homo sapiens,525
same,Ki,Adenosine receptor A2a,3 nM
COCCOc1ccc(N2CCN(CCn3ncc4c3nc(N)n3nc(-c5ccco5)nc43)CC2)cc1 [PRELADENANT],inhibition in vivo at 1 mg/kg,Rattus norvegicus [4],77%
same,inhibition in vivo at 0.1 mg/kg,Rattus norvegicus [6],60%
same,inhibition in vivo at 0.3 mg/kg,Rattus norvegicus [7],60%
same,inhibition in vivo at 1 mg/kg,Rattus norvegicus [5],70%
same,inhibition in vivo at 0.3 mg/kg,Rattus norvegicus [8],60%
same,inhibition in vivo at 0.1 mg/kg,Rattus norvegicus [9],25%
CN(CCc1ccc(F)cc1)c1cc2nc(-c3ccco3)nn2c(N)n1,Ratio,Homo sapiens,248
same,Ki,Adenosine receptor A2a,2 nM
COCCOc1ccc(N2CCN(CCN(C)c3cc4nc(-c5cccc(C#N)c5)nn4c(N)n3)CC2)cc1,Ratio,Homo sapiens,1070
same,inhibition in vivo at 3 mg/kg,Rattus norvegicus [1],31%
same,inhibition in vivo at 3 mg/kg,Rattus norvegicus [2],29%
same,AUC,[3],546 ng·h/mL
same,Ki,Adenosine receptor A2a,0.7 nM
COc1ccc(CCNc2cc3nc(-c4ccco4)nn3c(N)n2)cc1,Ratio,Homo sapiens,20
same,Ki,Adenosine receptor A2a,5.8 nM
COc1ccc(CN(C)c2cc3nc(-c4ccco4)nn3c(N)n2)cc1,Ratio,Homo sapiens,40
same,Ki,Adenosine receptor A2a,46 nM
COc1ccc(CCN(C)c2cc3nc(-c4ccco4)nn3c(N)n2)cc1,Ratio,Homo sapiens,473
same,Ki,Adenosine receptor A2a,1.8 nM
CCN(CCN1CCN(c2ccc(OCCOC)cc2)CC1)c1cc2nc(-c3ccco3)nn2c(N)n1,Ratio,Homo sapiens,102
same,AUC,[3],230 ng·h/mL
same,Ki,Adenosine receptor A2a,1.5 nM
COCCOc1ccc(N2CCN(CCNc3cc4nc(-c5ccco5)nn4c(N)n3)CC2)cc1,Ratio,Homo sapiens,145
same,AUC,[3],103 ng·h/mL
same,Ki,Adenosine receptor A2a,9.5 nM
COc1ccc(CCCc2cc3nc(-c4ccco4)nn3c(N)n2)cc1,Ratio,Homo sapiens,31
same,Ki,Adenosine receptor A2a,11.5 nM
COCCOc1ccc(N2CCN(CCN(CC3CC3)c3cc4nc(-c5ccco5)nn4c(N)n3)CC2)cc1,Ratio,Homo sapiens,234
same,inhibition in vivo at 3 mg/kg,Rattus norvegicus [1],77%
same,inhibition in vivo at 1 mg/kg,Rattus norvegicus [4],7%
same,inhibition in vivo at 3 mg/kg,Rattus norvegicus [2],65%
same,AUC,[3],245 ng·h/mL
same,inhibition in vivo at 1 mg/kg,Rattus norvegicus [5],32%
same,Ki,Adenosine receptor A2a,0.8 nM
Nc1nc(NCCN2CCN(c3ccc(F)cc3F)CC2)cc2nc(-c3ccco3)nn12,Ratio,Homo sapiens,262
same,Ki,Adenosine receptor A2a,1.5 nM
COCCOc1ccc(N2CCN(CCN(CCOC)c3cc4nc(-c5ccco5)nn4c(N)n3)CC2)cc1,Ratio,Homo sapiens,338
same,inhibition in vivo at 3 mg/kg,Rattus norvegicus [1],37%
same,inhibition in vivo at 1 mg/kg,Rattus norvegicus [4],29%
same,inhibition in vivo at 3 mg/kg,Rattus norvegicus [2],57%
same,AUC,[3],355 ng·h/mL
same,inhibition in vivo at 1 mg/kg,Rattus norvegicus [5],6%
same,Ki,Adenosine receptor A2a,0.7 nM
CN(CCN1CCN(c2ccc(F)cc2F)CC1)c1cc2nc(-c3cnco3)nn2c(N)n1,Ratio,Homo sapiens,7000
same,Ki,Adenosine receptor A2a,0.3 nM
CCN(CCN1CCN(c2ccc(F)cc2F)CC1)c1cc2nc(-c3ccco3)nn2c(N)n1,Ratio,Homo sapiens,312
same,AUC,[3],50 ng·h/mL
same,Ki,Adenosine receptor A2a,0.9 nM
Nc1nc(N(CCN2CCN(c3ccc(F)cc3F)CC2)CC2CC2)cc2nc(-c3ccco3)nn12,Ratio,Homo sapiens,831
same,inhibition in vivo at 3 mg/kg,Rattus norvegicus [1],41%
same,inhibition in vivo at 1 mg/kg,Rattus norvegicus [4],40%
same,inhibition in vivo at 3 mg/kg,Rattus norvegicus [2],65%
same,AUC,[3],17 ng·h/mL
same,inhibition in vivo at 1 mg/kg,Rattus norvegicus [5],34%
same,Ki,Adenosine receptor A2a,0.3 nM
Cc1nccnc1-c1nc2cc(N(C)CCN3CCN(c4ccc(F)cc4F)CC3)nc(N)n2n1,Ratio,Homo sapiens,7370
same,Ki,Adenosine receptor A2a,0.3 nM
CN(CCN1CCN(c2ccc(F)cc2F)CC1)c1cc2nc(-c3ccco3)nn2c(N)n1,Ratio,Homo sapiens,1580
same,inhibition in vivo at 3 mg/kg,Rattus norvegicus [1],35%
same,inhibition in vivo at 1 mg/kg,Rattus norvegicus [4],50%
same,inhibition in vivo at 3 mg/kg,Rattus norvegicus [2],75%
same,AUC,[3],53 ng·h/mL
same,inhibition in vivo at 1 mg/kg,Rattus norvegicus [5],30%
same,Ki,Adenosine receptor A2a,1 nM
Nc1nc2c(cnn2CCN2CCN(c3ccc(F)cc3F)CC2)c2nc(-c3ccco3)nn12,Activity,Rattus norvegicus [10],75%
same,inhibition in vivo at 1 mg/kg,Rattus norvegicus [4],75%
same,inhibition in vivo at 1 mg/kg,Rattus norvegicus [5],80%
COCCOc1ccc(N2CCN(CCOc3cc4nc(-c5ccc(Cl)o5)nn4c(N)n3)CC2)cc1,Ratio,Homo sapiens,40
same,AUC,[3],6 ng·h/mL
same,Ki,Adenosine receptor A2a,40 nM
COCCOc1ccc(N2CCN(CCN(C)c3cc4nc(-c5ccco5)nn4c(N)n3)CC2)cc1,Ratio,Homo sapiens,694
same,inhibition in vivo at 1 mg/kg,Rattus norvegicus [4],15%
same,AUC,[3],521 ng·h/mL
same,inhibition in vivo at 1 mg/kg,Rattus norvegicus [5],0%
same,Ki,Adenosine receptor A2a,2.5 nM
COCCOc1ccc(N2CCN(CCN(C)c3cc4nc(-c5ccccc5)nn4c(N)n3)CC2)cc1,Ratio,Homo sapiens,56
same,Ki,Adenosine receptor A2a,25 nM
